Assay results published in patent publication US11607384B2, “Lipid emulsified drug delivery systems for chemoprevention and treatment” (WESTERN UNIVERSITY OF HEALTH SCIENCES, priority 2017, dated 2023).

Tests used:
[1] = system: Panc-1 pancreatic cancer cells; assay: Colorimetric MTS cytotoxicity assay in Panc-1 cells; assay type: cell-based, Human; details: Panc-1, 72 h
Experimental: (§1) Human PC cells MIA PaCa-2 and Panc-1 were obtained from American type culture collection (ATCC) (Rockville, Md.). Cells were maintained in Dulbecco's modified Eagle's medium (DMEM) containing 10% fetal bovine serum (FBS) obtained from ATCC. Cells were cultured at 37° C. in a humidified atmosphere of 5% CO2 and 95% air.
(§2) The cell viability assay was performed according to manufacturer's protocol with the Promega CellTitre 96 Aqueous MTS reagent (Madison, Wis., USA). Briefly, 7.5×10^3 cells were seeded in 96-well plates and incubated overnight. […] At the end of the incubation period, the growth medium was removed followed by addition of 100 μl media consisting of 20% MTS and 1% of phenazine methosulfate (PMS) and the mixture was incubated for 2 h at 37° C. MTS is bio-reduced by the cells into formazan which could be measured using a microplate reader at 490 nm. Thus, the quantity of formazan product measured by absorbance is directly proportional to the number of living cells in culture. IC50 values were determined using Graph Pad Prism software (San Diego, Calif., USA). All analysis was performed in triplicate and replicated.
(§3) The cytotoxicity of the various treatment groups were evaluated using a colorimetric MTS assay. The cell viability assay was performed according to the manufacturer's protocol with the Promega CellTitre 96 Aqueous MTS reagent (Madison, Wis., USA). Briefly, 7.5×10^3 cells were seeded in 96-well plates and were incubated overnight. The cells were treated with different concentrations of treatment groups followed by incubation for a period of 72 hours. At the end of the incubation period, the growth medium was removed followed by addition of 100 μl media consisting of 20% MTS and 1% of phenazine methosulfate (PMS) and the mixture was incubated for 2 h at 37° C. MTS is bio-reduced by the cells into formazan which could be measured using a microplate reader at 490 nm. Thus, the quantity of formazan measured by the absorbance is directly proportional to the number of living cells in culture.
The cell viability assay was performed according to the manufacturer's protocol with the Promega Cell Titre 96 Aqueous MTS reagent (Madison, Wis., USA). Briefly, 7.5×10^3 cells were seeded in 96-well plates and were incubated overnight. The cells were treated with different concentrations of treatment groups followed by incubation for a period of 72 h. At the end of the incubation period, the growth medium was removed followed by addition of 100 μl media consisting of 20% MTS and 1% of phenazine methosulfate (PMS) and the mixture was incubated for 2 h at 37° C. MTS is bio-reduced by the cells into formazan which could be measured using a microplate reader at 490 nm. Thus, the quantity of formazan measured by the absorbance is directly proportional to the number of living cells in culture.
A study to determine IC50 in in vitro cell line cultures of pancreatic cancer cell lines was performed. […] Cytotoxicity was evaluated using the colorometric MTS assay. […] MTS is bio-reduced by the cells into formazan which could be measured using a microplate reader at 490 nm. Thus, the quantity of formazan measured by the absorbance is directly proportional to the number of living cells in culture.
A study to determine IC50 in in vitro cell line cultures of pancreatic cancer cell lines was performed. […] Cytotoxicity was evaluated using the colorometric MTS assay.

[2] = system: MIA-PaCa-2 pancreatic cancer cells; assay: Colorimetric MTS cytotoxicity assay in MIA-PaCa-2 cells; assay type: cell-based, Human; details: for IC50: MIA-PaCa-2, 72 h
Experimental: as §1, §2
A study to determine IC50 (inhibitory concentration to kill 50% of cancer cells) in in vitro cell line cultures of pancreatic cancer cell line was performed.
The cell viability assay was performed according to the manufacturer's protocol with the Promega CellTitre 96 Aqueous MTS reagent (Madison, Wis., USA). Briefly, 7.5×10^3 cells were seeded in 96-well plates and were incubated overnight. The cells were treated with different concentrations of treatment groups followed by incubation for a period of 72 hours. At the end of the incubation period, the growth medium was removed followed by addition of 100 μl media consisting of 20% MTS and 1% of phenazine methosulfate (PMS) and the mixture was incubated for 2 h at 37° C. MTS is bio-reduced by the cells into formazan which could be measured using a microplate reader at 490 nm. Thus, the quantity of formazan measured by the absorbance is directly proportional to the number of living cells in culture. […] All analysis was performed in triplicate.
as §3
Cytotoxicity was evaluated in Mia PaCa 2 pancreatic cancer cells using the colorimetric MTS assay, as described above.
A study to determine IC50 in in vitro cell line cultures of pancreatic cancer cell lines was performed. […] Cytotoxicity was evaluated using the colorometric MTS assay. The cell viability assay was performed according to the manufacturer's protocol with the Promega Cell Titre 96 Aqueous MTS reagent (Madison, Wis., USA). Briefly, 7.5×10^6 cells were seeded in 96-well plates and were incubated overnight. The cells were treated with different concentrations of treatment groups followed by incubation for a period of 72 h.

Structure (SMILES): CCOC(=O)N1CCC(=C2c3ccc(Cl)cc3CCc3cccnc32)CC1 [LOR (free), Loratadine]
- IC50 ([1]; Homo sapiens, Table 9, MTS): 357 µM
- IC50 ([2]; Homo sapiens, Table 4, MTS): 326 µM

Structure (SMILES): CC(=O)O[C@H]1C(=O)[C@@]2(C)[C@H]([C@H](OC(=O)c3ccccc3)[C@]3(O)C[C@H](OC(=O)[C@H](O)[C@@H](NC(=O)c4ccccc4)c4ccccc4)C(C)=C1C3(C)C)[C@]1(OC(C)=O)CO[C@@H]1C[C@@H]2O [Paclitaxel]
- IC50 ([1]; Homo sapiens, Table 20, varied Paclitaxel, fixed LOR (free or system 2) 125 μM, Sulforaphane 5 μM): 2.33 µM
- IC50 ([2]; Homo sapiens, Table 18, varied Paclitaxel, fixed LOR (free or system 2) 125 μM, Sulforaphane 5 μM): 1.96 µM

Structure (SMILES): Nc1ccn([C@@H]2O[C@H](CO)[C@@H](O)C2(F)F)c(=O)n1 [Gemcitabine]
- IC50 ([1]; Homo sapiens, Table 16, varied Gemcitabine, fixed LOR (free or system 2) 125 μM, Sulforaphane 5 μM): 539 µM
- IC50 ([2]; Homo sapiens, Table 14, varied Gemcitabine, fixed LOR (free or system 2) 125 μM, Sulforaphane 5 μM): 692 µM

Structure (SMILES): C[S+]([O-])CCCCN=C=S (centres unmarked) [Sulforaphane (free), Sulforaphane]
- IC50 ([1]; Table 10, MTS, LOR alone or in combination with free Sulforaphane): 99.6 µM
- IC50 ([1]; Table 11, MTS, DES alone or in combination with free Sulforaphane): 99.6 µM
- cell inhibition ([2]; Mia PaCa 2, at the concentration of 5 μM): did not show any significant cell inhibition
- IC50 ([2]; Table 5, MTS, combinations with fixed free Sulforaphane 5 μM): 92.2 µM
- IC50 ([2]; Table 6, MTS, combinations with fixed free Sulforaphane 5 μM): 92.2 µM
